Assay results: paper PMC9227765 (Viruses, 2022)
Where two headings read alike, the source gives them in different places.

Columns and labels:
EV-A71 virus (H strain) [1] = assay: Lethal EV-A71 challenge of 1-day-old ICR suckling mice: survival and body weight; format: in vivo
[2] = Cytotoxicity, CellTiter-Glo cell viability, RD cells; format: cell-based, Human; conditions: human, read-out: half-cytotoxic concentration (CC50)
EV-A71 H strain [3] = assay: CPE protection assay, EV-A71 H strain (CellTiter-Glo); format: cell-based; conditions: Enterovirus A, 100× TCID50, 72 h.p.i., read-out: EC50 against EV-A71 virus
EV-A71 AH08/06 strain = assay: CPE protection assay, EV-A71 clinical isolate AH08/06; format: cell-based; conditions: Enterovirus A, EVA71, Huh-7; EV-A71 AH08/06, Huh7
EV-A71 virus (H strain) [4] = assay: Viral RNA loads in tissues of EV-A71-infected suckling mice (qRT-PCR); format: in vivo; conditions: 200 mg/kg i.p. for 4 consecutive days
EV-A71 virus [5] = assay: Viral RNA reduction assay (qRT-PCR) in RD cells; format: cell-based, enterovirus A71; conditions: MOI 0.1, 30 h.p.i.
EV-A71 virus VP1 protein [6] = assay: Immunofluorescence assay of VP1; format: cell-based, enterovirus A71; conditions: MOI 1, 16 h.p.i.
[7] = Cytotoxicity, CellTiter-Glo cell viability, Huh7 cells; format: cell-based; conditions: human, read-out: half-cytotoxic concentration (CC50)
EV-A71 H strain [8] = assay: Time-of-drug-addition assay (qRT-PCR); format: cell-based, enterovirus A71; conditions: RD cells, 10 μM, MOI 0.01, 30 h.p.i.
[9] = system: CV-A6 TW-2007-00141 strain; assay: CPE protection assay, CV-A6; format: cell-based, coxsackievirus A6
EV-A71 virus [10] = assay: Virus particle yield in supernatant (TCID50); format: cell-based, enterovirus A71; conditions: RD cells, MOI 0.1, supernatant, 30 h.p.i.
[11] = Cytotoxicity, CellTiter-Glo cell viability, Vero cells; format: cell-based; conditions: African green monkey, read-out: half-cytotoxic concentration (CC50)
EV-A71 virus VP1 protein [12] = assay: Western blot of VP1; format: cell-based, enterovirus A71; conditions: RD cells, 24 h; dose-dependent; EIDD-1931 10 to 0.63 μM, EIDD-2801 100 to 6.3 μM
RD cells = assay: Cytotoxicity, CellTiter-Glo cell viability, RD cells; format: cell-based, Human
CV-B3 Nancy strain = assay: CPE protection assay, CV-B3; format: cell-based, Coxsackievirus B3; conditions: Enterovirus B, CVB3, CV-B3 Nancy, RD
Huh7 cells = assay: Cytotoxicity, CellTiter-Glo cell viability, Huh7 cells; format: cell-based
[13] = system: EV-D68 STL-2014–12 strain; assay: CPE protection assay, EV-D68; format: cell-based; conditions: Enterovirus D, EVD68, EV-D68 STL-2014–12, RD
CV-A16 190-D1 strain = assay: CPE protection assay, CV-A16; format: cell-based, coxsackievirus A16; conditions: Enterovirus A, CVA16, CV-A16 190-D1, RD
Vero cells = assay: Cytotoxicity, CellTiter-Glo cell viability, Vero cells; format: cell-based
[14] = in vivo, po, 800 mg; cited from earlier work
EV-A71 = system: EV-A71; set-up: method as in earlier work; conditions: cited from earlier work
[15] = 66.6 mg/kg (66.67 printed for EIDD-2801) i.p. once a day for 7 days, until 21 d.p.i.
[16] = 200 mg/kg i.p. once a day for 7 days, observed until 21 d.p.i.
[17] = Enterovirus A, CVA6, CV-A6 TW-2007-00141, RD

Row | SMILES | survival (EV-A71 virus (H strain) [1]; [15]) | survival (EV-A71 virus (H strain) [1]; [16]) | CC50 at 72 h [2] | EC50 (EV-A71 H strain [3]; EVA71, Huh-7, Huh7 cells) | EC50 (EV-A71 H strain [3]; EVA71, RD cells) | EC50 (EV-A71 H strain [3]; EVA71, Vero cells) | EC50 (EV-A71 AH08/06 strain) | viral RNA loads in brain, heart, intestine, liver, limb muscle and lung (EV-A71 virus (H strain) [4]) | replication of viral RNA (qRT-PCR) (EV-A71 virus [5]) | CC50 at 72 h [7] | EC50 [9, 17] | propagation of infectious viral particles (EV-A71 virus [10]) | CC50 at 72 h [11] | expression levels of viral VP1 proteins (Western blot) (EV-A71 virus VP1 protein [12]) | other results
1 | O=c1[nH]c(=NO)ccn1[C@@H]1O[C@H](CO)[C@@H](O)[C@H]1O [EIDD-1931, β-D-N^4-hydroxycytidine] | all survived | all survived | 80.47 ± 0.02 µM | 4.43 ± 0.33 µM | 5.13 ± 0.56 µM | 7.04 ± 0.38 µM | 2.79 ± 0.89 µM | significantly reduced | inhibited the replication of viral RNA in a dose-dependent manner | 34.09 ± 0.06 µM | < 20 µM | inhibited | 14.1 ± 0.43 µM | significantly attenuated | survival protection (EV-A71 virus (H strain) [1]; 22.2 mg/kg i.p. once a day for 7 days, until 21 d.p.i.): 60%; body weight (EV-A71 virus (H strain) [1]; 66.6 mg/kg i.p. for 7 days, until 21 d.p.i.): good weight maintenance and growth; body weight (EV-A71 virus (H strain) [1]; 200 mg/kg i.p. for 7 days, until 21 d.p.i.): good weight maintenance and growth; time within which the mice died (EV-A71 virus (H strain) [1]; low-dose group 7.41 mg/kg i.p. once a day for 7 days): ≤ 12 days; expression of EV-A71 VP1 protein (immunofluorescence) (EV-A71 virus VP1 protein [6]; 10 µM): almost completely blocked; EV-A71 viral RNA production, drug added at stages III and IV (post-entry) (EV-A71 H strain [8]): inhibited; EC50 ([9]; CV-A6 TW-2007-00141, RD): 15.7 ± 0.38 µM
2 | CC(C)C(=O)OC[C@H]1O[C@@H](n2ccc(NO)nc2=O)[C@H](O)[C@@H]1O [EIDD-2801, molnupiravir] | 67% | 100% | > 100 µM | 35.6 ± 0.47 µM | 70.1 ± 4.4 µM | 88.5 ± 3.18 µM | 30.3 ± 0.55 µM | significantly reduced | inhibited the replication of viral RNA in a dose-dependent manner | > 100 µM | > 100 µM | inhibited | > 100 µM | significantly attenuated | half-cytotoxic concentration (CC50) (RD cells): no significant cytotoxicity; EC50 (CV-B3 Nancy strain): 87.2 ± 10.8 µM; expression of EV-A71 VP1 protein (immunofluorescence) (EV-A71 virus VP1 protein [6]; 100 µM): partly inhibited; half-cytotoxic concentration (CC50) (Huh7 cells): no significant cytotoxicity; EC50 [13]: 86.2 ± 9.17 µM; EC50 (CV-A16 190-D1 strain): 44.9 ± 4.23 µM; half-cytotoxic concentration (CC50) (Vero cells): no significant cytotoxicity; Cmax [14]: 16.1 µM
3 | C#C[C@@]1(O)[C@H](O)[C@@H](CO)O[C@H]1n1ccc2c(N)ncnc21 [NITD008, 7-Deaza-2′-C-acetylene-adenosine] | – | – | – | – | – | – | – | – | – | – | – | – | – | – | anti-EV-A71 activity (EV-A71): potent anti-EV-A71 activity
